From patent US20090110708A1, “ANIMATE TISSUE ANTISEPSIS” (priority 2007, published 2009)

System: Staphylococcus aureus
Test: Kill of Staphylococcus aureus inoculated onto inanimate porcine intestine by forced evaporation of the applied solution
Format: cell-based

For OO [H2O2, hydrogen peroxide], the “death of the organisms (kill by enhanced evaporation)” value (initial H2O2 concentrations 4%-10% (vol.), 16 mg/cm^2 on tissue, blown air 50° C., 5.0 m/sec) was “significantly killed”, the log reduction (no alcohol, 3 minute dry time) was 2.21 and the log reduction (no alcohol, 3.5 minute dry time) was 2.68. For the same molecule, the log reduction (no alcohol, 4 minute dry time) was 1.79.

“ethyl alcohol [10% alcohol (EtOH), reference compound]” was tested, and the log reduction (no peroxide, 10% alcohol (EtOH)) was “no measurable log reduction”.
